Values quoted from earlier work, collected in patent US8497291B2 (Cyclacel Limited, priority 2005, dated 2013).
Where two headings read alike, the source gives them in different places.

Experiments:
[1] = phase I, patients with a variety of cancers
[2] = system: variety of cell lines, xenograft and metastatic cancer model
colon cancer = conditions: model of colon cancer

## CCCCCCCCCCCCCCCC(=O)Nc1ccn([C@@H]2O[C@H](CO)[C@@H](O)[C@@H]2C#N)c(=O)n1 [CYC682, 2′-cyano-2′-deoxy-N^4-palmitoyl-1-β-D-arabinofuranosylcytosine]
[1]
  dose limiting toxicity: myelosuppression
  tolerability in humans: well tolerated
[2]; as demonstrated in EP 536936
  anti-tumour activity: excellent anti-tumour activity
[2]; variety of cell lines, xenograft and metastatic cancer model
  anti-tumour activity: potent anti-tumour activity
Colon cancer
  anticancer activity: strong anticancer activity
  increasing survival compared with gemcitabine or 5-FU: superior
  preventing the spread of colon cancer metastases to the liver compared with gemcitabine or 5-FU: superior
